Measured values: patent US12102638B2 (Urovant Sciences GmbH, priority 2017, dated 2024)

What was measured:
[1] = test system: healthy subjects; assay: thorough QT single oral dose study; assay type: in vivo, human; settings: for QTcF LS mean difference from placebo / QTcF change from baseline, LS mean: single 400 mg
[2] = test system: patients with OAB; assay: Phase 2b vital sign changes (HR, SBP, DBP); assay type: in vivo, human
Source text: None led to discontinuation. The overall incidence of orthostatic symptoms was low.
Small differences in the percent of subjects exceeding categorical heart rate and blood pressure thresholds for vibegron were similar to those in the tolterodine arm.

[3] = test system: healthy subjects; assay: maximum MA4 heart rate in multiple-dose Phase 1 study; assay type: in vivo, human; settings: Day 14
Method: More intensive assessments of heart rate and blood pressure were performed in healthy volunteers in several Phase 1 studies. […] Doses ranged from 25 to 400 mg once daily for 7 to 28 days depending on the cohort. Least squares mean and 90% confidence intervals of maximum change from baseline in moving average of heart rate over 4 hours postdose (MA4 HR) are presented in Table 17.

[4] = dose-Cmax and dose-AUC models / log-log regression and simulations from Phase 1 data; design: species or system human
Method: In order to contextualize PK parameters of a 75 mg dose, dose-Cmax and dose-AUC models were created using data from Phase 1 studies.

[5] = test system: healthy subjects
Source text: Safety data from 16 Phase 1 studies, which include 15 completed Phase 1 studies and 1 study that was terminated early (this study was terminated for reasons unrelated to efficacy or safety) was collected.

[6] = in vivo

With O=C(Nc1ccc(C[C@@H]2CC[C@H]([C@H](O)c3ccccc3)N2)cc1)[C@@H]1CCc2nccc(=O)n21 [vibegron, (6S)—N-[4-[[(2S,5R)-5-[(R)-hydroxy(phenyl)methyl]pyrrolidin-2-yl]methyl]phenyl]-4-oxo-7,8-dihydro-6H-pyrrolo[1,2-a]pyrimidine-6-carboxamide] the “QTcF LS mean difference from placebo” value ([1]; 2 hour) was 0.81 ms, the “QTcF change from baseline, LS mean” value ([1]; 2 hour) was 0.73 ms and the “QTcF LS mean difference from placebo” value ([1]; 3 hour) was -1.04 ms. The “QTcF change from baseline, LS mean” value ([1]; 3 hour) was -0.30 ms, the “QTcF LS mean difference from placebo” value ([1]; 4 hour) was -2.96 ms and the “QTcF change from baseline, LS mean” value ([1]; 4 hour) was -2.53 ms. For the same molecule, the “QTcF LS mean difference from placebo” value ([1]; 6 hour) was -2.70 ms, the “QTcF change from baseline, LS mean” value ([1]; 6 hour) was -8.33 ms and the “QTcF LS mean difference from placebo” value ([1]; 8 hour) was -3.24 ms. The “QTcF change from baseline, LS mean” value ([1]; 8 hour) was -11.60 ms, the “QTcF LS mean difference from placebo” value ([1]; 10 hour) was -4.14 ms and the “QTcF change from baseline, LS mean” value ([1]; 10 hour) was -10.29 ms. For the same molecule, the “QTcF LS mean difference from placebo” value ([1]; 12 hour) was -4.00 ms, the “QTcF change from baseline, LS mean” value ([1]; 12 hour) was -7.10 ms and the “QTcF LS mean difference from placebo” value ([1]; 23.5 hour) was -0.34 ms. For the same molecule, the “QTcF change from baseline, LS mean” value ([1]; 23.5 hour) was -2.87 ms, the “effect on QTc or blood pressure” value ([1]; thorough QT study) was “no clinically meaningful effect on QTc or blood pressure” and the “SBP and DBP mean changes at Week 1 and mean maximum changes over 8 weeks, difference between placebo and vibegron” value ([2]; 50 mg and 100 mg) was < 1 mm Hg. For the same molecule, the “percent of subjects with a change from baseline in DBP >15 mmHg” value ([2]; 100 mg) was 1.3%, the “HR mean maximum changes over 8 weeks, difference to placebo” value ([2]; in vivo) was < 2 bpm and the “DBP change from baseline, mean (95% CI) Max, week 1 to 8” value (shortened to “DBP change … (95% CI) Max, week 1 to 8”) ([2]; vibegron 3 mg) was 5.03 (3.92, 6.15) mm Hg. For the same molecule, the “DBP change from baseline, mean (95% CI), week 1” value (“DBP change … (95% CI), week 1” for short) ([2]; vibegron 3 mg) was −0.37 (−1.69, 0.95) mm Hg, the “HR change from baseline, mean (95% CI) maximum, week 1 to 8” value (shortened to “HR change … (95% CI) maximum, week 1 to 8”) ([2]; vibegron 3 mg) was 5.57 (4.25, 6.90) bpm and the “HR change from baseline, mean (95% CI), week 1” value (“HR change … (95% CI), week 1” below) ([2]; vibegron 3 mg) was 0.36 (−0.90, 1.62) bpm. The “SBP change from baseline, mean (95% CI) maximum, week 1 to 8” value (“SBP change … (95% CI) maximum, week 1 to 8” for short) ([2]; vibegron 3 mg) was 7.14 (5.18, 9.10) mm Hg, the “SBP change from baseline, mean (95% CI), week 1” value (“SBP change … (95% CI), week 1” below) ([2]; vibegron 3 mg) was −0.35 (−2.34, 1.65) mm Hg and the “DBP change … (95% CI) Max, week 1 to 8” value ([2]; vibegron 15 mg) was 6.37 (5.20, 7.53) mm Hg. For the same molecule, the “DBP change … (95% CI), week 1” value ([2]; vibegron 15 mg) was 0.03 (−1.52, 1.59) mm Hg, the “HR change … (95% CI) maximum, week 1 to 8” value ([2]; vibegron 15 mg) was 6.56 (5.20, 7.92) bpm and the “HR change … (95% CI), week 1” value ([2]; vibegron 15 mg) was 0.35 (−1.15, 1.85) bpm. For the same molecule, the “SBP change … (95% CI) maximum, week 1 to 8” value ([2]; vibegron 15 mg) was 8.93 (7.18, 10.67) mm Hg, the “SBP change … (95% CI), week 1” value ([2]; vibegron 15 mg) was −0.34 (−2.46, 1.78) mm Hg and the “DBP change … (95% CI) Max, week 1 to 8” value ([2]; vibegron 50 mg) was 4.19 (3.10, 5.29) mm Hg. For the same molecule, the “DBP change … (95% CI), week 1” value ([2]; vibegron 50 mg) was −0.70 (−2.07, 0.67) mm Hg, the “HR change … (95% CI) maximum, week 1 to 8” value ([2]; vibegron 50 mg) was 5.49 (4.28, 6.69) bpm and the “HR change … (95% CI), week 1” value ([2]; vibegron 50 mg) was 0.29 (−0.88, 1.46) bpm. For the same molecule, the “SBP change … (95% CI) maximum, week 1 to 8” value ([2]; vibegron 50 mg) was 7.01 (5.31, 8.70) mm Hg, the “SBP change … (95% CI), week 1” value ([2]; vibegron 50 mg) was −0.79 (−2.65, 1.08) mm Hg and the “DBP change … (95% CI) Max, week 1 to 8” value ([2]; vibegron 100 mg) was 4.80 (3.88, 5.72) mm Hg. The “DBP change … (95% CI), week 1” value ([2]; vibegron 100 mg) was −0.69 (−1.72, 0.34) mm Hg, the “HR change … (95% CI) maximum, week 1 to 8” value ([2]; vibegron 100 mg) was 6.12 (5.10, 7.15) bpm and the “HR change … (95% CI), week 1” value ([2]; vibegron 100 mg) was 0.35 (−0.69, 1.38) bpm. For the same molecule, the “SBP change … (95% CI) maximum, week 1 to 8” value ([2]; vibegron 100 mg) was 6.51 (5.09, 7.93) mm Hg, the “SBP change … (95% CI), week 1” value ([2]; vibegron 100 mg) was −0.77 (−2.22, 0.68) mm Hg and the “Maximum MA4 HR change from baseline, LS mean” value (from here on “Maximum MA4 HR change”) ([3]; 25 mg once daily) was 1.47 bpm. The “Maximum MA4 HR, Difference from Placebo” value ([3]; 25 mg once daily) was −1.60 bpm, the “Maximum MA4 HR change” value ([3]; 50 mg once daily) was 1.50 bpm and the “Maximum MA4 HR, Difference from Placebo” value ([3]; 50 mg once daily) was −1.57 bpm. The “Maximum MA4 HR change” value ([3]; 100 mg once daily) was 3.28 bpm, the “Maximum MA4 HR change” value ([3]; 150 mg once daily) was 3.17 bpm and the “Maximum MA4 HR, Difference from Placebo” value ([3]; 150 mg once daily) was 0.10 bpm. For the same molecule, the “Maximum MA4 HR change” value ([3]; 200 mg once daily) was 5.67 bpm, the “Maximum MA4 HR, Difference from Placebo” value ([3]; 200 mg once daily) was 2.60 bpm and the “Maximum MA4 HR change” value ([3]; 300 mg once daily) was 9.06 bpm. The “Maximum MA4 HR, Difference from Placebo” value ([3]; 300 mg once daily) was 5.98 bpm, the “Maximum MA4 HR change” value ([3]; 400 mg once daily) was 10.33 bpm and the “Maximum MA4 HR, Difference from Placebo” value ([3]; 400 mg once daily) was 7.26 bpm. For the same molecule, the “AUC of 75 mg lower than 200 mg single dose” value [4] was ~2 fold, the “AUC of 75 mg lower than 400 mg single dose” value [4] was ~6 fold and the “Cmax of 75 mg lower than 200 mg single dose” value [4] was “approximately 3.3 fold”. For the same molecule, the “Cmax of 75 mg lower than 400 mg single dose” value [4] was ~9.2 fold, the “increase in Cmax on increase in dose from 50 to 100 mg” value [4] was ~3 fold and the “reduction in Cmax on decreasing the dose from 100 mg to 75 mg” value [4] was ~40%. For the same molecule, the “postural dizziness, dose relation” value ([5]; Phase 1 multiple dose studies) was “appeared to increase at doses ≥100 mg”, the “treatment-emergent serious adverse events (SAEs) or deaths” value ([5]; Phase 1 program) was “no treatment-emergent serious adverse events (SAEs) or deaths reported” and the “incidence of AE orthostatic hypotension with symptoms, dose relation” value ([5]; Phase 1 studies) was “higher at vibegron doses greater than 150 mg”. The “laboratory safety parameters and ECG parameters” value ([5]; preliminary Phase 1 safety data) was “no clinically meaningful changes”, the “tolerability across the Phase 1 program” value ([5]; single doses 2 to 600 mg, multiple doses 25 to 400 mg up to 28 days) was “generally well tolerated” and the “orthostatic AEs on coadministration with metoprolol or amlodipine” value ([5]; vibegron 100 mg, subjects with essential hypertension) was “no occurrences of orthostatic AEs”. For the same molecule, the “severe TEAEs, SAEs or deaths” value [6] was “no severe TEAEs, SAEs or deaths”.
